{
  "source": "ChEMBL document CHEMBL1147351",
  "about": "“Sesquiterpenoids and norsesquiterpenoids from the soft coral Lemnalia africana” (J Nat Prod, 1993)",
  "key": {"P388": {"test_system": "P388", "assay": "Cytotoxicity against mouse P388 cells at 1 ug/ml", "format": "functional, cell-based"}, "[1]": {"assay": "Cytotoxicity against african green monkey CV1 cells", "format": "cell-based", "settings": "chlorocebus aethiops, cv-1"}},
  "note": "Calls of active or inactive are those of the source. The rule behind the calls is not given here.",
  "data": [
    {"smiles": "C[C@H]1CCC=C2CCC(C(C)(O)CO)=C[C@@]21C", "note": "(some centres not stated)", "values": [
      {"measurement": "Activity", "setting": "P388", "result": "Active"},
      {"measurement": "Activity", "setting": "[1]", "result": 10, "unit": "µg/mL"}
    ]}
  ]
}
